Results: the supplement of paper PMC10307832

What was measured:
Test in all cases: relative viability (nuclei count vs DMSO), 5 days (fraction); higher = more cells survive
Selumetinib = compound: Cn1cnc2c(F)c(Nc3ccc(Br)cc3Cl)c(C(=O)NOCCO)cc21 [Selumetinib]
Method in brief: (§1)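 On vehicle-anchored 1536-well plates, lung cancer cell lines held overnight at 37 °C were pinned with five library-drug doses (not always all listed) spaced by √10. With no medium change over 5 days, they were then fixed, permeabilised and Hoechst-stained in one step and imaged at 4×. MetaXpress counted nuclei, and viability is the median across plates of treated-well over vehicle-well nuclei. Acceptance needed control CV below 25% and at least one doubling.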

Venetoclax = compound: CC1(C)CCC(CN2CCN(c3ccc(C(=O)NS(=O)(=O)c4ccc(NCC5CCOCC5)c([N+](=O)[O-])c4)c(Oc4cnc5[nH]ccc5c4)c3)CC2)=C(c2ccc(Cl)cc2)C1 [Venetoclax]
Method in brief: as §1

Selumetinib + Pemetrexed = compound: Cn1cnc2c(F)c(Nc3ccc(Br)cc3Cl)c(C(=O)NOCCO)cc21 [Selumetinib] + Nc1nc2[nH]cc(CCc3ccc(C(=O)N[C@@H](CCC(=O)O)C(=O)O)cc3)c2c(=O)[nH]1 [Pemetrexed] (partner 0.2 µM)
Method in brief: (§2)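 Nuclei were stained with Hoechst during a one-step fixation (final 0.05% Triton X-100, 1% formaldehyde, 1 ug/ml Hoechst) carried out 5 days after dosing, then counted on 4× images. The cells, lung cancer lines in 1536-well plates, had been dosed by pin tool the day after seeding with one drug alone or a fixed anchor-drug dose plus five library-drug doses (not always all listed) in √10 steps. Relative viability is the nuclei count in treated wells divided by that in vehicle wells, and each value is the median of duplicate plates.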

Venetoclax + Alpelisib = compound: CC1(C)CCC(CN2CCN(c3ccc(C(=O)NS(=O)(=O)c4ccc(NCC5CCOCC5)c([N+](=O)[O-])c4)c(Oc4cnc5[nH]ccc5c4)c3)CC2)=C(c2ccc(Cl)cc2)C1 [Venetoclax] + Cc1nc(NC(=O)N2CCC[C@H]2C(N)=O)sc1-c1ccnc(C(C)(C)C(F)(F)F)c1 [Alpelisib] (partner 2 µM)
Method in brief: as §2

Cell Line	relative viability (Selumetinib; 0.02 µM)	relative viability (Selumetinib; 0.06325 µM)	relative viability (Selumetinib; 0.2 µM)	relative viability (Selumetinib; 0.6325 µM)	relative viability (Venetoclax; 0.01 µM)	relative viability (Venetoclax; 0.03162 µM)	relative viability (Venetoclax; 0.1 µM)	relative viability (Venetoclax; 0.3162 µM)	relative viability (Venetoclax; 1 µM)	relative viability (Selumetinib + Pemetrexed; first compound 0.02 µM)	relative viability (Selumetinib + Pemetrexed; first compound 0.06325 µM)	relative viability (Selumetinib + Pemetrexed; first compound 0.2 µM)	relative viability (Selumetinib + Pemetrexed; first compound 0.6325 µM)	relative viability (Venetoclax + Alpelisib; first compound 0.01 µM)	relative viability (Venetoclax + Alpelisib; first compound 0.03162 µM)	relative viability (Venetoclax + Alpelisib; first compound 0.1 µM)	relative viability (Venetoclax + Alpelisib; first compound 0.3162 µM)	relative viability (Venetoclax + Alpelisib; first compound 1 µM)
PC-3 [JPC-3]	1.01	1	0.869	0.787	0.995	1.07	1.06	1.04	0.917	1.2	0.819	0.82	0.836	0.917	1.03	1.01	0.967	1.01
COR-L 105	0.713	0.572	0.672	0.55	0.946	0.917	0.834	1.02	0.873	1.11	1.02	0.841	0.582	0.983	0.959	1.13	0.91	1.02
NCI-H322M	0.83	0.681	0.651	0.624	1.05	0.982	0.899	1.06	0.938	0.546	0.524	0.564	0.562	0.918	0.881	0.836	0.764	0.752
NCI-H1395	0.984	0.85	0.892	0.845	1.01	0.99	0.769	1.11	0.922	0.837	0.868	0.694	0.92	0.989	0.943	0.926	0.983	0.961
NCI-H838	0.853	0.863	0.854	0.743	0.965	1.05	0.948	0.957	0.906	0.234	0.214	0.233	0.242	1.11	0.953	1.04	1.04	0.955
NCI-H1993	0.794	0.727	0.728	0.762	0.892	0.999	0.904	0.91	0.838	0.614	0.571	0.553	0.651	0.676	0.696	0.665	0.617	0.68
CAL-12T	0.88	0.794	0.781	0.737	0.944	1.05	0.923	0.956	0.886	1.28	1.25	1.1	0.969	1.25	1.08	1.01	1.43	1.25
LCLC-97TM1	0.94	0.846	0.735	0.413	0.901	1.16	0.815	0.962	0.853	0.186	0.237	0.219	0.258	–	0.317	0.248	0.241	0.249
NCI-H1355	0.949	0.85	0.749	0.743	0.957	0.983	1.01	1.03	0.904	1.01	0.881	0.898	0.788	0.842	0.782	0.784	0.785	0.805
NCI-H596	0.9	0.881	0.889	0.729	1.01	0.972	0.941	0.925	0.888	0.485	0.576	0.426	0.494	0.516	0.487	0.502	0.544	0.397
NCI-H1944	0.946	0.791	0.673	0.643	1.14	0.937	0.951	1.05	0.891	0.573	0.476	0.405	0.484	1.12	0.836	0.779	0.864	0.845
NCI-H2085	0.863	0.844	0.881	0.788	0.873	1.08	1.03	0.969	0.928	0.77	0.789	0.677	0.627	0.911	0.925	0.884	0.928	0.911
201T	0.94	0.901	0.91	0.888	0.975	0.989	0.982	0.984	0.982	0.358	0.328	0.323	0.308	0.96	1.01	1.07	0.972	1.03
NCI-H2405	1.02	0.923	0.861	0.686	1.03	1.14	0.978	0.996	0.914	0.999	0.813	0.75	0.736	0.833	0.751	–	0.82	0.705
LXF-289	0.948	0.932	0.835	0.778	1.17	1.02	0.944	0.956	0.883	0.865	0.848	0.763	0.808	1.05	1	1.04	1.04	0.934
LC-2-ad	0.948	0.896	0.885	0.899	0.942	1.01	0.978	1	0.964	0.263	0.269	0.273	0.277	0.839	0.906	1.02	0.871	0.905
